Experimental data reported in patent publication US20240116971A1, “NMN AND DERIVATIVES FOR ITS USE IN THE TREATMENT OF DEPRESSION AND/OR ANXIETY IN PATIENTS HAVING A FORM OF PARKINSONISM” (Nuvamid SA, priority 2021, published 2024).

Test system: MSA patients
Test: Safety of NMN dietary supplement: hemodynamic, blood count, inflammatory, liver, kidney, cardiac/muscular, metabolic parameters, adverse events
Assay type: in vivo, human
Method: The purpose of the multicentric, prospective, non-randomised, non-controlled pilot study is to study the efficacy of NMN administration in MSA patients (45-80 years old) at a larger scale. In this study, the safety, tolerance and efficacy of a dose of NMN are evaluated. The amount of NMN to be ingested daily is divided into 2 capsules (Size 0). Each patient takes 2 capsules/day in the morning during breakfast with a big glass of water. The composition of each capsule is as follows:
The main objectives of the study are to evaluate the safety of the dietary supplement during a 12-week supplementation. The safety of the food supplement is assessed in terms of: • a) Hemodynamic parameters: • Blood pressure (systolic and diastolic arterial pressure (SAP, DAP) standing up and lying down (2 min)), • Heart rate (HR, standing up/lying down (2 min)). • b) Blood Formula Counting: • Hematies, • Leukocytes (lymphocytes, monocytes, neutrophils, basophils, eosinophils), • Platelets. • c) Inflammatory parameters: • C Reactive Protein (CRP), • Sedimentation rate. • d) Liver function: • ASAT, • ALAT, • gamma GT, • Alkaline phosphatases. • e) Kidney function: • Creatinemia, • Urea. • Cardiac and muscular function: • Creatine Phosphokinase (CPK). • f) Metabolic/biochemical parameters: • lonogram (Na+, K+, Cl−), • glycated hemoglobin • g) Occurrence of undesirable effects.
48 hours before each follow-up visit by the neurological investigator, a nurse visits the patient's home to take blood samples and measure the hemodynamic parameters [SAP/DAP lying down, standing up (2 min) and HR lying down, standing up (2 min)]. In addition, during each visit, the possible occurrence of adverse events will be asked to patients. The nurse visits are scheduled between D-7 and D-2 to confirm the patient's inclusion, then at D13 (for visit V2 at D15), D43 (for visit V3 at D45) and D88 (for the end of study visit at D90). No fasting was required for the biologic assessments. To ensure the safety of the food supplement, all biological parameters must be within the limits of reference values and/or judged by the investigating physician as non-clinical.
Safety biology, pharmacokinetics and hemodynamic constants (D13; D43; D88): A blood sample is collected by a nurse at patient's home 48 hours before the visit to the investigational site (D13; D43 and D88) so that the investigator has the biological safety results on the day of the consultation.
The required bioassessment is the same as the inclusion one (D-2) and include: • Complete and differential Blood cells Counts, • Metabolic/biochemical parameters: lonogram (Na+, K+, Cl−), Glycated hemoglobin (HbA1C) • Inflammatory assessment: CRP, sedimentation rate, • Liver check-up: AST, ALT, gamma GT, ALP, bilirubin • Renal assessment: Creatinemia, urea, • Cardiac and muscular assessment: CPK;
Also, an aliquot of acidified whole blood is stored at the AML at −80° C. for the determination of NMN metabolites. The hemodynamic constants (BP and HR standing up/lying down) are taken and entered in the patient's follow-up notebook by the nurse. The nurse also questions the patient on the possible occurrence of adverse events and checks the patient's compliance with treatment by filling in his or her follow-up notebook and pill box. On receipt, the investigating physician check the results: the blood parameters must be within the reference value limits and/or judged by the investigating physician as not clinically relevant. Otherwise, the patient is summoned without delay by the investigating physician to leave the study prematurely.
At D90, the safety and tolerance of the study product is assessed by the investigating physician during the visits provided for in the protocol by means of an interview with the patient, information gathered by the volunteer in the daily diary, a clinical examination (including blood pressure and heart rate measurements) and a blood test. All patients continued to take their usual treatment for MSA.

SMILES: NC(=O)c1ccc[n+]([C@@H]2O[C@H](COP(=O)([O-])O)[C@@H](O)[C@H]2O)c1 [beta-NMN, nicotinamide mononucleotide]
- ionogram and glycated hemoglobin level (3-month follow-up): stable
- impact on liver function (3 months): does not thus have an impact
- induction of inflammation (3 months): does not thus induce inflammation
- creatine phosphokinase (3 months of follow-up): relatively stable
- liver parameters (3 months of follow-up): relatively stable
- renal parameters (3 months of follow-up): relatively stable
- inflammatory parameters (3 months of follow-up, within or outside reference values, not clinically relevant): relatively stable
- blood count values (3 months of follow-up, within reference limits or not clinically relevant): relatively stable
- safety and tolerance, conclusion (MSA patients, 3 months): safe and well-tolerated
- increase in average blood pressure and heart rate (NMN 400 mg/day, 3 months): does not thus lead to an increase
- mean heart rate (HR) (NMN 400 mg/day, 3 months, V0-V4 comparison p-value=0.2969): normal and stable over time
- Mean systolic blood pressure (NMN 400 mg/day, 3 months, V0-V4 comparison p-value=0.6172): normal and stable over time
- Mean diastolic blood pressure (NMN 400 mg/day, 3 months, V0-V4 comparison p-value=0.6719): normal and stable over time
- concentration of electrolytes (Na+, K+, Cl−) and glycemia (after 3 months of treatment): does not affect
- impact on heart and muscle function (after 3 months of treatment): does not have an impact
